These are literature values, as cited in patent publication US4213968A, “Enkephalin derivatives” (priority 1978, dated 1980).

Data set [1] has as its system brain opiate receptor sites.
For data set [2], the system named is analgesia in the rat. The settings on record: injected directly into the brain of the rat.
Data set [3] relates to opiate activity.

Consider “H-Tyr-Gly-Gly-Phe-Met-OH [methionine enkephalin]”, for which the “binding to partially purified brain opiate receptor sites” value in data set [1] is reported as “binds stereospecifically”. In addition, the analgesic activity entry in data set [2] is given as “weak analgesic activity of short duration”. Also, the “activity in bioassays for opiate activity” value in data set [3] is recorded as “very active”.
